Consider 31 compounds from patent US20210038559A1, “CANNABINOIDS AND DERIVATIVES FOR PROMOTING IMMUNOGENICITY OF TUMOR AND INFECTED CELLS” (priority 2018, published 2021).

Structures can show the parent of a compound that is named as a salt.

For the first assay, the system named is MHC-I expression by COLO 205 cells. Kind of assay: cells. The assay is classed as cell-based, human.
Conditions: not given
On the procedure:
A panel of synthetic cannabinoids (Cayman Chemical, #9002891) was tested for MHC class I-inducing capability in COLO 205 cells as described above. COLO 205 cells were treated with the compounds at a concentration of 35 μM and evaluated for cell surface MHC class I expression after 48 hours. Cells were harvested, stained with MHC-I mAb W6/32 (Thermo Fisher). MHC-I expression was determined by flow cytometry.
Regarding `CCCCCn1cc(Cc2cccc3ccccc23)c2ccccc21` [Example 252, 3-(1-naphthalenylmethyl)-1-pentyl-1H-indole], the “Induction Fold” value is given as 1.61 Fold.
Still for that read-out and setting: to `COC(=O)[C@@H](NC(=O)c1nn(CCCC(C)F)c2ccccc12)C(C)C` (stereo partly shown) [Example 268, methyl (1-(4-fluoropentyl)-1H-indazole-3-carbonyl)-1-valinate] belongs 1.55 Fold.

The assay is the same for the next values; noted with them: Homo sapiens, COLO 205, 48 h, MHC-I expression, COLO 205 cells, compounds at 35 μM, 48 hours, flow cytometry (W6/32); read-out: Induction Fold.
`CC(C)(C)C(NC(=O)c1nn(Cc2ccc(F)cc2)c2ccccc12)C(N)=O` (stereo not shown) [Example 247, N-[1-(aminocarbonyl)-2,2-dimethylpropyl]-1-[(4-fluorophenyl)methyl]-1H-indazole-3-carboxamide]: the fold induction at 35 µM was 1.64.
Regarding `O=C(Oc1cccc2ccccc12)c1cn(Cc2ccc(F)cc2)c2ccccc12` [Example 248, 1-[(4-fluorophenyl)methyl]-1H-indole-3-carboxylic acid, 1-naphthalenyl ester], the fold induction at 35 µM was found to be 1.63.
In the case of `CCCCCn1cc(C(=O)Oc2cccc3ccccc23)c2ccccc21` [Example 249, naphthalen-1-yl 1-pentyl-1H-indole-3-carboxylate], the fold induction at 35 µM came to 1.63.
The same measure, in the same setting: the same measure for `CCN(CC)CCN1C(=O)CN=C(c2ccccc2F)c2cc(Cl)ccc21` [Example 250, 7-chloro-1-[2-(diethylamino)ethyl]-5-(2-fluorophenyl)-1,3-dihydro-2H-1,4-benzodiazepin-2-one]: 1.63; for `CC(C)CCn1cc(C(=O)c2ccc3ccccc3c2)c2ccccc21` [Example 251, (1-isopentyl-1H-indol-3-yl)(naphthalen-2-yl)methanone]: 1.62; for `COc1ccc(C(=O)c2cn(CC3CCCCC3)c3ccccc23)c2ccccc12` [Example 253, [1-(cyclohexylmethyl)-1H-indol-3-yl](4-methoxy-1-naphthalenyl)-methanone]: 1.61.
The same measure, in the same setting: the same measure for `O=C(Oc1ccc2ccncc2c1)c1cn(CC2CCCCC2)c2ccccc12` [Example 254, isoquinolin-7-yl 1-(cyclohexylmethyl)-1H-indole-3-carboxylate]: 1.6; for `CCCCCn1cc(C(=O)c2cccc3c(CC)cccc23)c2ccccc21` [Example 255, (5-ethyl-1-naphthalenyl)(1-pentyl-1H-indol-3-yl)-methanone]: 1.6.
Same read-out and setting: the same measure for `CCCCCn1cc(C(=O)Oc2ccc3ncccc3c2)c2ccccc21` [Example 256, quinolin-6-yl 1-pentyl-1H-indole-3-carboxylate]: 1.59.
Regarding `O=C(Oc1cccc2ccccc12)c1cn(CCCCCF)c2ccccc12` [Example 257, naphthalen-1-yl 1-(5-fluoropentyl)-1H-indole-3-carboxylate], the fold induction at 35 µM was found to be 1.59.
The same measure, in the same setting: the same measure for `CCCCCn1nc(C(=O)Oc2cccc3cccnc23)c2ccccc21` [Example 258, 1-pentyl-1H-indazole-3-carboxylic acid, 8-quinolinyl ester]: 1.59; for `CCCCCn1cc(C(=O)c2ccc3ccccc3c2)c2ccccc21` [Example 259, 2-naphthalenyl(1-pentyl-1H-indol-3-yl)-methanone]: 1.58.
On the same count and under the same terms, to `CC1(C)C(C(=O)c2cn(CC3CCOCC3)c3ccccc23)C1(C)C` [Example 260, [1-[(tetrahydro-2H-pyran-4-yl)methyl]-1H-indol-3-yl](2,2,3,3-tetramethylcyclopropyl)-methanone] belongs 1.57.
On the same count and under the same terms, to `O=C(Oc1cnc2ccccc2c1)c1cn(CC2CCCCC2)c2ccccc12` [Example 261, Quinolin-3-yl 1-(cyclohexylmethyl)-1H-indole-3-carboxylate] belongs 1.56; to `CCCCCn1cc(C(=O)c2cc(Cl)cc3ccccc23)c2ccccc21` [Example 263, (3-chloronaphthalen-1-yl)(1-pentyl-1H-indol-3-yl)methanone, hydrate], 1.56; to `CCCCCn1cc(C(=O)c2cc(CC)cc3ccccc23)c2ccccc21` [Example 264, (3-ethyl-1-naphthalenyl)(1-pentyl-1H-indol-3-yl)-methanone], 1.56.
With `CCCCCn1cc(C(=O)c2ccc(OC)c3ccccc23)c2ccccc21` [Example 265, (4-methoxy-1-naphthalenyl)(1-pentyl-1H-indol-3-yl)-methanone], the fold induction at 35 µM was 1.55.
For the compound `NC(=O)[C@H](Cc1ccccc1)NC(=O)c1cn(CCCCCF)c2ccccc12` [Example 267, (S)-N-(1-amino-1-oxo-3-phenylpropan-2-yl)-1-(5-fluoropentyl)-1H-indole-3-carboxamide], the fold induction at 35 µM worked out at 1.55.
Still for that read-out and setting: the same measure for `CCC(C)Cn1cc(C(=O)c2ccc3ccccc3c2)c2ccccc21` (stereo not shown) [Example 271, (1-(2-methylbutyl)-1H-indol-3-yl)(naphthalen-2-yl)-methanone]: 1.54.
Still for that read-out and setting: to `CCCCCn1cc(C(=O)N2CCN(C)CC2)c2ccccc21` [Example 273, (4-methylpiperazin-1-yl)(1-pentyl-1H-indol-3-yl)methanone, monohydrochloride] belongs 1.53; to `CCCCCn1cc(C(=O)Oc2ccc3ccncc3c2)c2ccccc21` [Example 274, isoquinolin-7-yl 1-pentyl-1H-indole-3-carboxylate], 1.52.
Turning to `CCCCCn1cc(C(=O)c2cccc3cc(CC)ccc23)c2ccccc21` [Example 275, (6-ethylnaphthalen-1-yl)(1-pentyl-1H-indol-3-yl)methanone], the fold induction at 35 µM was found to be 1.52.
The same measure, in the same setting: the same measure for `O=C(Oc1cccc2cccnc12)c1nn(Cc2ccc(F)cc2)c2ccccc12` [Example 276, quinolin-8-yl 1-(4-fluorobenzyl)-1H-indazole-3-carboxylate]: 1.51; for `CN(C)C(=O)n1nnc(Cc2ccc(-c3ccccc3)cc2)n1` [Example 278, 5-([1,1′-biphenyl]-4-ylmethyl)-N,N-dimethyl-2H-tetrazole-2-carboxamide]: 1.49; for `CC(C)(NC(=O)c1nn(CCCCC#N)c2ccccc12)c1ccccc1` [Example 281, 1-(4-cyanobutyl)-N-(1-methyl-1-phenylethyl)-1H-indazole-3-carboxamide]: 1.48.

The assay is the same for the next values; noted with them: MHC-I expression, COLO 205 cells, compounds at 35 μM, 48 hours, flow cytometry (W6/32).
With `CCCCCN1C(=O)C(=NNC(=O)c2ccccc2)c2ccc(OC)cc21` [Example 266, 2Z-(1,2-dihydro-6-methoxy-2-oxo-1-pentyl-3H-indol-3-ylidene)hydrazide benzoic acid], the “Induction Fold” value worked out at 1.55 Fold.
The same measure, in the same setting: to `COC(=O)[C@@H](NC(=O)c1cn(Cc2ccc(F)cc2)c2ccccc12)C(C)(C)C` [Example 269, N-[[1-[(4-fluorophenyl)methyl]-1H-indol-3-yl]carbonyl]-3-methyl-1-valine, methyl ester] belongs 1.54 Fold.
On the same count and under the same terms, to `COC(=O)[C@@H](NC(=O)c1cn(Cc2ccc(F)cc2)c2ccccc12)C(C)C` [Example 270, N-[[1-[(4-fluorophenyl)methyl]-1H-indol-3-yl]carbonyl]-1-valine, methyl ester] belongs 1.54 Fold; to `COC(=O)[C@@H](NC(=O)c1nn(CCCCCF)c2ccccc12)C(C)C` [Example 279, N-[[1-(5-fluoropentyl)-1H-indazol-3-yl]carbonyl]-L-valine, methyl ester], 1.49 Fold.
